Patent US10626100B2, “Selective HDAC6 inhibitors” (The Trustees of Columbia University in the City of New York, priority 2013, dated 2020)
“Also recorded” adds a separate entry of the source.

Key:
[1] = system: acetylated alpha-tubulin and acetylated histone H3 in spleen; assay: Acetylation of alpha-tubulin and histones in spleen of treated mice; assay type: in vivo
Experimental: FIG. 7. Immunoblots of spleens harvested at indicated times after the last injection. Immune-deficient mice were treated daily by 30 μL intraperitoneal injection with indicated doses of compound 8. DMSO is the vehicle control. Western blots of acetylated alpha-tubulin (Acet-Tub) and acetylated histone H3 (Acet-H3). Western blots of HSP90 and total histone H3 (Total-H3) are loading controls.
(§1) Recombinant HDAC1 and HDAC6 are used to evaluate the selective inhibitory potency of each compound. Cell based assays: Normal cells (Human Foreskin Fibroblast cells), LNCaP (human prostate cancer cells), MCF-7 (human breast cancer cells, A549 (human adenocarcinoma of lung cells) and ARP-1 (human multiple myeloma cells) are used in these assays. Cells were cultured for up to 72 hr without and with the potential HDAC6-selective inhibitor. SAHA was used as a control. Cell number and cell viability were determined by enumeration. Proteins were extracted from cells and assayed for accumulation of acetylated tubulin and acetylated histones. All methods are described in Namdar et al., PNAS, 2010, 107:20003-8. In vivo animal studies: Potential HDAC6 inhibitor compounds are further assayed by administration to mice for up to 5 days with daily injections. Animals are sacrificed and tissues are analyzed for accumulation of acetylated tubulin and acetylated histones.
(§2) Toxicity of compound 8 in mice was determined. […] Mice were intraperitoneally injected daily for 5 days with 100, 200, or 300 mg/kg compound 8. […] The effects of compound 8 on the acetylation of alpha-tubulin and histones in the spleen isolated from mice treated with compound 8 were analyzed at three time points after the administration of the drug.

[2] = system: LNCaP (transformed) cells; assay: Combination with anti-cancer agents in LNCaP cells; assay type: cell-based
[3] = system: acetylated alpha-tubulin and acetylated histone H3 in LNCaP (human prostate cancer cells); assay: Accumulation of acetylated proteins in LNCaP cells (western blot); assay type: cell-based; settings: transformed cells, concentrations as high as 16 μM
[4] = system: androgen-dependent CWR22 human prostate cancer xenograft; assay: CWR22 human prostate cancer xenograft in nude mice; assay type: in vivo
Mouse toxicity study = assay type: in vivo; settings: mice, intraperitoneal, daily for 5 days, 100, 200, or 300 mg/kg
Experimental: FIG. 6. Average weight of immune-deficient mice treated daily by 30 μL intraperitoneal injection with indicated doses of compound 8. DMSO is the vehicle control.
as §2

HFS (normal) cells = assay: Combination with anti-cancer agents in HFS cells; assay type: cell-based, human; settings: compound 8 alone or in combination with etoposide, paclitaxel, or SAHA, 72 h
[5] = system: LNCaP (human prostate adenocarcinoma) cells; assay: Cell growth and viability of LNCaP cells; assay type: cell-based
Experimental: FIG. 3. Cell growth of HFS (normal) and LNCaP (transformed) cells treated with compound 8 over 72 h.
FIG. 4. Cell viability of HFS (normal) and LNCaP (transformed) cells treated with compound 8 over 72 h.
as §1
The effect of compound 8 on the cell growth and viability of normal (HFS, human foreskin fibroblast) and transformed (LNCaP, human prostate adenocarcinoma) cells cultured with 8, 16, 32 or 64 μM HPB for up to 72 h was evaluated.

HDAC6 = molecular target: T1, HDAC6 (Homo sapiens, UniProt Q9UBN7); assay: Inhibition of recombinant HDAC6
T1 sequence (Q9UBN7 1-1215): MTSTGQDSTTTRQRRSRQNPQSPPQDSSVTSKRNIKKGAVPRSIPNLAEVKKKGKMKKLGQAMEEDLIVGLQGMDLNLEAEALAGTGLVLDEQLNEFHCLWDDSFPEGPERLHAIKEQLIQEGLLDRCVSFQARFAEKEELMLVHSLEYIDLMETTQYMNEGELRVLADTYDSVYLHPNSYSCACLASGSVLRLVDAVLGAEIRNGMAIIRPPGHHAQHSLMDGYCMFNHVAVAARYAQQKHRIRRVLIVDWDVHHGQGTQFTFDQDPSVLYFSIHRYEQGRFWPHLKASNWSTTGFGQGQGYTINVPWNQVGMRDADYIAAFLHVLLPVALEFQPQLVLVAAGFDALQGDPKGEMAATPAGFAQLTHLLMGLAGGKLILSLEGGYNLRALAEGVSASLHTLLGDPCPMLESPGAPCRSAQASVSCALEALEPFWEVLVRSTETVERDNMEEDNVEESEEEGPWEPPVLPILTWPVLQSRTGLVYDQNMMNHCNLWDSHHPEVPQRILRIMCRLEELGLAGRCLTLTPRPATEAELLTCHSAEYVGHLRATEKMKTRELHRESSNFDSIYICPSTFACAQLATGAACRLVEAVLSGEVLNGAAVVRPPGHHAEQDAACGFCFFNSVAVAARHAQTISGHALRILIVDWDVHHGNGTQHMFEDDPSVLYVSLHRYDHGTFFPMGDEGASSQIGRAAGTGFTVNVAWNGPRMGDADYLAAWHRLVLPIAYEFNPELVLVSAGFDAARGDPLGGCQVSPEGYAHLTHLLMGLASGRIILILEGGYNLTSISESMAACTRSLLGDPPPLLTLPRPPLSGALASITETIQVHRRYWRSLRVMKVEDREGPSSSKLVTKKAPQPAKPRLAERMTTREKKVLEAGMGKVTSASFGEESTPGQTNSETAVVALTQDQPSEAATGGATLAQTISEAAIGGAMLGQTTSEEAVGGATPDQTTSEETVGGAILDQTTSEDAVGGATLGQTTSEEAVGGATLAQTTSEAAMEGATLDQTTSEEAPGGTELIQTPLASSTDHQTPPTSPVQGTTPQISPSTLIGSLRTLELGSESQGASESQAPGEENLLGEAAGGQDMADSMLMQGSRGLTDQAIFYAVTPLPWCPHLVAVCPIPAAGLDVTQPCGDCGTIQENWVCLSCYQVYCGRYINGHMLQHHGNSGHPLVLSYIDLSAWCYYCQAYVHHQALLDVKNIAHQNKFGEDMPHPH

[6] = system: acetylated alpha-tubulin and histones in CWR22 tumors and spleen; assay: Acetylated lysine patterns in CWR22 tumors and spleen; assay type: in vivo, nude mice
Source text: Tumors and spleen are removed from the animals, and histones and proteins are extracted for the detection of acetylated lysine patterns.

[7] = 21 days, daily 300 mg/kg compound 8 or weekly 3 mg/kg etoposide alone

O=C(NO)c1ccc(CN(CCO)C(=O)Cc2ccccc2)cc1 [Compound 8, N-hydroxy-4-((N-(2-hydroxyethyl)-2-phenylacetamido)methyl) benzamide]
accumulation of acetylated tubulin in the spleen ([1]; 1.5 h after injection, FIG. 7): increased accumulation of acetylated tubulin | accumulation of acetylated tubulin in the spleen ([1]; 5 h after injection): reduced to the level seen in vehicle-treated controls | accumulation of acetylated histones in the spleen ([1]; FIG. 7): no detectable accumulation of acetylated histones | cell growth and cell viability in combination with etoposide ([2]; LNCaP, 50 μM etoposide and 16 μM compound 8, 72 h, versus etoposide alone): inhibition in cell growth and loss of cell viability to a greater extent than LNCaP cells cultured with etoposide alone; also recorded: enhances etoposide or SAHA-induced transformed cell death | cell death in combination with SAHA ([2]; LNCaP, compound 8 and 5 μM SAHA, 72 h, versus SAHA alone): cell death is enhanced; also recorded: enhances etoposide or SAHA-induced transformed cell death | cell death in combination with paclitaxel ([2]; LNCaP, paclitaxel and compound 8, 72 h, versus either drug alone): increases cell death | cytotoxicity of anti-cancer drugs in transformed cells cultured with compound 8 ([2]; transformed cells, induction of apoptosis and accumulation of DNA damage): enhances the cytotoxicity of anti-cancer drugs | accumulation of acetylated PRX [3]: selectively induced accumulation of acetylated alpha-tubulin and acetylated PRX | growth of established CWR22 tumors, single agent [4, 7]: no significant suppression of the growth | weight loss, single agent [4, 7]: no weight loss | growth of established CWR22 tumors, combination with etoposide ([4]; daily compound 8 and weekly etoposide, versus vehicle-treated control animals): causes suppression of the growth of established CWR22 tumors; also recorded: significantly enhances the anti-tumor effect of etoposide | tolerability in animals (Mouse toxicity study): well tolerated | weight loss (Mouse toxicity study; FIG. 6): no weight loss | cell growth (HFS (normal) cells): inhibits cell growth | cell viability (HFS (normal) cells): does not induce loss of cell viability | cell growth (cell number) ([5]; LNCaP, 8, 16, 32 or 64 μM, up to 72 h, FIG. 3): inhibited cell growth of normal and transformed cells in a concentration dependent manner; also recorded: inhibited cell number | cell death / cell viability ([5]; LNCaP, 8, 16, 32 or 64 μM, up to 72 h, FIG. 4): did not induce cell death of normal or transformed cells; also recorded: does not decrease cell viability | death of LNCaP cells ([5]; concentrations as high as 32 μM): no detectable death of LNCaP cells | potency as inhibitor of HDAC6 compared with SAHA (HDAC6): one hundred fold more potent | IC50 (HDAC6; read-out: IC50 (nM) HCAC6, recombinant HDAC6): 31 nM | accumulation of acetylated alpha-tubulin in CWR22 tumors and spleen, combination with etoposide ([6]; combination of compound 8 and etoposide): increased accumulation of acetylated alpha-tubulin | accumulation of histones in tumors, combination with etoposide ([6]; combination of etoposide and compound 8): Increased levels of accumulation of histones | accumulation of histones in tumors, single agent ([6]; mice injected with compound 8 alone or etoposide): not with compound 8 alone | accumulation of acetylated alpha-tubulin in CWR22 tumors and spleen, single agent ([6]; mice treated with compound 8 or etoposide): increased accumulation of acetylated alpha-tubulin
